# Source: patent US10864229B2, “Use of nitrite salts in chronic ischemia” (priority 2007, dated 2020)
# Read-outs that look alike come from different tables or passages of the source.
# How the values were obtained:
# [1] = test system: mouse hind-limb ischemia model; test: Laser Doppler hind-limb blood flow, chronic treatment in hind-limb ischemia model; assay type: in vivo, mouse (C57BL/6J)
# Source text: (§1) Animals and Reagents. Unless otherwise stated, male wild type (C57BL/6J) mice weighing 20-25 gm and age 2-3 months were used. The mice were bred and housed at the Association for Assessment and Accreditation of Laboratory Animal Care, International-accredited LSUHSC-Shreveport animal resource facility and maintained according to the National Research Council's Guide for Care and Use of Laboratory Animals. All experimental protocols were approved by the LSU Institutional Animal Care and Use Committee. Sodium nitrite, sodium nitrate, phosphate buffered saline (PBS), and all other chemicals were purchased from Sigma Chemical (St. Louis, Mo.). Hind-Limb Ischemia Model. Hind limb ischemia was induced by ligating the left common femoral artery proximal to origin of profunda femoris artery according to Senthilkumar, A., Smith, R. D., Khitha, J., Arora, N., Veerareddy, S., Langston, W., Chidlow, J. H., Jr., Barlow, S. C., Teng, X., Patel, R. P., et al. 2007. Arterioscler Thromb Vase Biol 27:1947-1954. Mice were anesthetized with intraperitoneal injection of ketamine (100 mg/kg) and xylazine (8 mg/kg); surgery was performed […] aseptic conditions. The common femoral vein and femoral nerve were dissected away from the artery. Two ligatures were placed in the common femoral artery proximal to the profunda femoris artery and then transected between the two ligations. The incision was then closed and the ligation was immediately verified by laser Doppler measurement of tissue blood flow.
# (§2) Laser Doppler measurements of tissue blood flow. The Vasamedics Laserflo BPM2 deep tissue penetrating laser doppler device was used to measure hind limb blood flow. The tip of laser probe was placed with stable positioning using a probe stand over the medial calf muscle of mice. Readings were recorded in ml of blood flow per 100 g tissue per minute from non-ischemic and ischemic limbs. Daily blood flow measurements were taken before the first nitrite or nitrate injection of a 24 hour period in order to obtain representative steady state changes in perfusion. Percent change in tissue blood flow was determined by dividing ischemic limb blood flow by non-ischemic limb blood flow and multiplied by 100. In a separate series of experiments, blood flow was also measured within 30 seconds after nitrite or nitrate administration to assess acute changes in blood flow.
# We examined the effect of a range of sodium nitrite doses on ischemic tissue blood flow in the mouse hind-limb ischemia model described in Example 1. Sodium nitrite was administered via intraperitoneal injection twice a day in a dose range of 8.25-3,300 μg/kg; 15 mice were used per treatment group. Blood flow was measured according the laser Doppler method of Example 1. Changes in ischemic tissue perfusion were determined by measuring ischemic limb blood flow which was divided by the respective contra-lateral non-ischemic limb blood flow to calculate a percent change for each animal.
# [2] = test system: endothelial cell proliferation in ischemic gastrocnemicus tissues; test: Endothelial cell proliferation (Ki67 staining) in gastrocnemius tissue; assay type: in vivo, mouse (C57BL/6J); settings: day 3
# Source text: as §1
# The effect of sodium nitrite on endothelial cell proliferation in ischemic gastrocnemicus tissues was analyzed in the hind-limb ischemia model of Example 1.
# [3] = test system: mouse hind-limb ischemia model; assay type: in vivo, mouse (C57BL/6J)
# Protocol: as §2
# Stimulation of angiogenesis alone during chronic ischemia is generally insufficient for restoring tissue perfusion. Increased arteriogenesis through the recruitment and differentiation of smaller arterioles is important to supply newly formed microvasculature. Moreover, an acute increase in vascular shear stress due to increased blood flow is a critical mediator of arteriogenesis. We examined the effect of 165 μg/kg sodium nitrite on acute changes (30 sec) in ischemic and nonischemic tissue perfusion according to the method in Example 1. Ten mice were used per treatment group.
# [4] = test system: mouse hind-limb ischemia model; test: Vascular density (CD31/DAPI) of gastrocnemius muscle tissue; assay type: in vivo, mouse (C57BL/6J)
# Source text: as §1
# Arterioscler Thromb Vase Biol 27:1947-1954.
# [5] = test system: SNO+XNO; settings: 165 μg/kg
# Protocol: (§3) Measurement of Nitrite, NO Metabolite, Tissue cGMP, and eNOS Protein Levels. Nitrite and tissue NO metabolite levels tissue (nitrosothiol, C- or N-nitroso compounds, or iron-nitrosyl proteins which are collectively referred to SNO+XNO) whether were measured using chemiluminescence techniques according to Lang, J. D., Jr., Teng, X., Chumley, P., Crawford, J. H., Isbell, T. S., Chacko, B. K., Liu, Y., Jhala, N., Crowe, D. R., Smith, A. B., et al. 2007. J Clin Invest. 117:2583-2591. Gastrocnemius muscle tissue cGMP levels were determined using the cGMP ELISA from Cayman Chemical (Ann Arbor, Mich.) according to the manufacturer's directions. Specimens were collected within 2 min after injection of either PBS or sodium nitrite. Total eNOS protein levels in hind-limb tissue were determined by Western blot analysis.
# The effect of nitrite treatment on levels of the NO metabolites, SNO and XNO was measure according to the method in Example 1. Twenty mice were used per treatment group.
# [6] = test system: mouse hind-limb ischemia model
# Protocol: Vascular casting. Hind limb vascular casting of ischemic limbs was performed using Microfil silicone injection MV120. Before vascular casting, papaverine (5 ng/ml) and adenosine (1 mg/ml) were given intravenously to increase perfusion of the casting resin. Briefly, the abdominal aorta proximal to the femoral artery bifurcation was ligated with 5.0 silk suture material and cannulated caudal to the ligation using PESO tubing held in place with a silk ligature. 400 μl of Microfil was infused into the aortic catheter and allowed to set in situ for 16 hours at 4° C. Hind limb muscle tissue was cleared by incubating tissues in graded glycerol solutions of 40%, 60%, 80%, and 100% for 24 hours each. Vascular casts were subsequently photographed using a stereomicroscope.
# To further evaluate arteriogenesis activity, we performed hind-limb ligations distal to the profunda femoris and proximal to the knee to more easily distinguish changes in the arterial supply. […] Arterial casts were made according to the method in Example 1.
# [7] = test system: ischemic hind limb of C57BL/6J mice; settings: 165 μg/kg I.P. b.i.d. started day 5 post-ligation
# Protocol: We also evaluated the effect of delaying chronic sodium nitrite treatment on restoration of hind limb blood flow. Permanent femoral artery ligation was performed on the left hind limb of C57BL/6J mice (n=6 per treatment group) as described in Example 1. […] Blood flow recovery was monitored throughout the study using deep tissue penetrating laser Doppler as described in Example 1. […] “Day 0 Pre” on the x-axis refers to blood flow on the day of ligation before the ligation was performed; “Day 0 Post” on the x-axis refers to blood flow on the day of ligation after the ligation was performed.
# [8] = test system: cGMP; settings: 165 μg/kg; day 3 or 7
# Protocol: as §3
# [9] = test system: eNOS protein; settings: 165 μg/kg
# Protocol: as §3
# (§4) Analysis of blood and tissue nitrite levels in nitrate-treated and control animals was performed according to the method in Example 1.
# [10] = Protocol: as §3, §4
# [11] = test system: excisional wounds in C57BL/6J mice; settings: for percent wound surface remaining vs PBS-treated controls: 165 μg/kg I.P. b.i.d.
# Protocol: Full thickness excisional wounds were created using a 4 mm punch biopsy device. C57BL/6J mice were anesthetized according to the method in Example 1. Wounds were created by pinching the loose skin and punching a half circle biopsy to obtain a uniform 4 mm diameter wound (n=4 per treatment group). […] Wound diameter was measured using digital calipers and plotted as the percent wound surface area remaining at each successive day.
# [12] = test system: ischemic hind limb of Db/Db diabetic mice
# Protocol: We evaluated the effect of sodium nitrite treatment on ischemic hind limb blood flow in a diabetic mouse model. Permanent femoral artery ligation was performed on the left hind limb of Db/Db diabetic mice (n=5 per treatment group) according to the methods in Examples 1 and 2, except that the mice were anesthetized with 2% inhaled isofluorane. […] Blood flow recovery was monitored throughout the study using deep tissue penetrating laser Doppler according to the method in Example 1.
# [13] = test system: ischemic hind limb of C57BL/6J mice; settings: 165 μg/kg single I.P. bolus 45 minutes after ligation; 7 day period
# Protocol: Permanent femoral artery ligation was performed on the left hind limb of C57BL/6J mice (n=3 per treatment group) according to the method in Example 1. A single bolus injection of either PBS or sodium nitrite (165 μg/kg) was given I.P. 45 minutes after completing the ligation. Blood flow recovery was monitored every other day over a 7 day period to evaluate the efficacy of single bolus injection therapy. […] “Day 0 Pre” on the x-axis refers to blood flow on the day of ligation before the ligation was performed; “Day 0 Post” on the x-axis refers to blood flow on the day of ligation after the ligation was performed.
smiles,measurement,setting,value
"CC1(C)N([O])C(c2ccc(C(=O)O)cc2)=[N+]([O-])C1(C)C [carboxy PTIO, 2-(4-Carboxyphenyl)-4,4,5,5-tetramethylimidazoline-1-oxyl-3-oxide, reference compound]",effect of NO scavenger on ability of sodium nitrite to restore ischemic limb blood flow,[1]; carboxy PTIO 1 mg/kg daily plus sodium nitrite 165 μg/kg,significantly attenuated
same,effect of cPTIO on nitrite-induced increase in Ki67 to CD31 colocalization,"[2]; cPTIO plus sodium nitrite, ischemic tissue",blocked
same,effect of carboxy PTIO on nitrite-induced increase in Ki67 nuclear localization,"[2]; carboxy PTIO plus sodium nitrite, ischemic tissue",blocked
same,effect of cPTIO on nitrite-dependent acute tissue blood flow change,"[3]; mouse, in vivo",significantly blunted
same,effect of cPTIO cotreatment on nitrite augmentation of angiogenesis in ischemic hind limbs,"[4]; cPTIO plus sodium nitrite 165 μg/kg, days 3 and 7",prevented nitrite augmentation of angiogenesis
"O=[N+]([O-])[O-].[Na+] [sodium nitrate, reference compound]",ischemic limb blood flow,"[1]; lowest dose 8.25 μg/kg, by days 5 and 7",augmented ischemic limb blood flow
O=NO [sodium nitrite],temporal efficacy on ischemic blood flow compared to higher and lower doses,[1]; 165 μg/kg i.p. twice a day,optimal temporal efficacy
same,hind limb blood flow in the nonischemic limbs,"[1]; 165 μg/kg i.p., nonischemic limb",neither PBS nor sodium nitrite altered
same,blood flow after injection in hind limbs ischemic for 24 h,[1]; 165 μg/kg injection,enhanced blood flow
same,percentage blood flow in ischemic hind limbs,"[1]; 8.25, 16.5, 165 and 3,300 μg/kg i.p. twice a day, by day 3 post ligation, progressively increased by day 7, vs PBS",increased the percentage blood flow
same,tissue SNO+XNO levels,[5]; day 3,Neither sodium nitrite (165 μg/kg) nor PBS significantly altered
same,SNO+XNO levels in ischemic tissue,"[5]; day 7, compared to PBS",significantly increased
same,collateral vessels in arterial cast of ischemic limb,"[6]; day 7, vascular casting",Numerous collateral vessels
same,number of arterial branch points,"[6]; ligation distal to profunda femoris, vs PBS-treated controls",significantly greater
same,ischemic hind limb blood flow recovery with delayed therapy,[7],restored
same,Ki67 nuclear localization (colocalization with DAPI),"[2]; 165 μg/kg, ischemic tissue",significantly increased
same,Ki67 to CD31 colocalization,"[2]; 165 μg/kg, ischemic tissue",significantly increased
same,Ki67 nuclear localization (colocalization with DAPI),"[2]; 165 μg/kg, non-ischemic tissue",but not non-ischemic tissues
same,tissue cGMP levels,[8],neither 165 μg/kg sodium nitrite nor PBS significantly altered
same,acute blood flow change under chronic nitrite therapy,"[3]; 165 μg/kg, days 3 and 7","lesser, yet still significant, increase"
same,acute enhancement of ischemic tissue blood flow,"[3]; mouse, in vivo",92.3±18%
same,duration of increased blood flow after injection,"[3]; mouse, in vivo",> 10 min
same,eNOS protein expression,"[9]; day 3, ischemic hind-limb tissue",significantly decreased
same,eNOS protein expression,"[9]; day 3, nonischemic hind-limb tissue",without altering expression
same,eNOS protein expression,"[9]; day 7, ischemic tissue",no effect
same,eNOS protein expression,"[9]; day 7, nonischemic tissue",reduced
same,blood levels of nitrite,"[10]; 165 μg/kg chronic therapy, days 3 and 7",significantly decreased over time
same,tissue nitrite levels,"[10]; 165 μg/kg, day 3, ischemic tissue",significantly increased
same,"tissue nitrite levels, nitrite-treated vs PBS-treated","[10]; 165 μg/kg, day 7",did not differ significantly
same,excision wound healing,"[11]; 165 μg/kg I.P. b.i.d. from wounding, 4 mm wound",enhanced
same,percent wound surface remaining vs PBS-treated controls,[11]; first six days of the study,significantly less
same,percent wound surface remaining vs PBS-treated controls,[11]; remaining four days,lower
same,endothelial staining of CD31 in ischemic muscle tissue,"[4]; 165 μg/kg, day 7, compared to PBS or sodium nitrate controls",much more abundant
same,nonischemic tissue vascular density,"[4]; 165 μg/kg, day 7, nonischemic gastrocnemius",did not significantly alter
same,vascular density of ischemic gastrocnemius muscle,"[4]; 165 μg/kg, days 3 and 7, compared to PBS or sodium nitrate",significantly increased
same,"augmentation of ischemic tissue vascular density, high dose vs low dose","[4]; 3,300 μg/kg compared to 165 μg/kg",less potent
same,ischemic hind-limb blood flow recovery in diabetic mice,[12]; 165 μg/kg I.P. b.i.d. started post-ligation,restored
same,blood flow in ischemic hind limbs vs PBS-treated controls,"[12]; 165 μg/kg I.P. b.i.d., all time points analyzed",significantly greater
same,blood flow in ischemic hind limbs relative to preligation,"[12]; 165 μg/kg I.P. b.i.d., by the end of the study",approached preligation levels
same,ischemic hind limb blood flow recovery after single bolus,[13],did not restore
